From ChEMBL document CHEMBL1806407, “Site-directed mutagenesis provides insights into the selective binding of trityl derivatives to Plasmodium falciparum dUTPase” (Eur J Med Chem, 2011) come the findings set out here.

A short description of test [1]: Selectivity index, ratio of Ki for recombinant Plasmodium falciparum dUTPase I117A mutant expressed in Escherichia coli BL21(DE3) cells to Ki for human dUTPase.
Test [2] can be described thus: Selectivity index, ratio Ki for recombinant wild type Plasmodium falciparum dUTPase expressed in Escherichia coli BL21(DE3) cells to Ki for human dUTPase.
Test [3] concerns the target dUTP pyrophosphatase (Plasmodium falciparum 3D7, UniProt Q8II92, F46A). As to the kind of experiment: Inhibition of recombinant Plasmodium falciparum dUTPase F46A mutant expressed in Escherichia coli BL21(DE3) cells using dUTP as substrate by spectrophotometric analysis.
Test [4] in a line: Selectivity index, ratio of Ki for recombinant Plasmodium falciparum dUTPase K96A mutant expressed in Escherichia coli BL21(DE3) cells to Ki for human dUTPase.
Test [5] in a line: Selectivity index, ratio of Ki for recombinant Plasmodium falciparum dUTPase F46A mutant expressed in Escherichia coli BL21(DE3) cells to Ki for human dUTPase.
The nature of test [6]: Inhibition of recombinant wild type Plasmodium falciparum dUTPase expressed in Escherichia coli BL21(DE3) cells using dUTP as substrate by spectrophotometric analysis.
Test [7] concerns the target dUTP pyrophosphatase (Plasmodium falciparum 3D7, UniProt Q8II92, I117A). As to the kind of experiment: Inhibition of recombinant Plasmodium falciparum dUTPase I117A mutant expressed in Escherichia coli BL21(DE3) cells using dUTP as substrate by spectrophotometric analysis.
The target in test [8] is dUTP pyrophosphatase (Plasmodium falciparum 3D7, UniProt Q8II92, K96A). As to the kind of experiment: Inhibition of recombinant Plasmodium falciparum dUTPase K96A mutant expressed in Escherichia coli BL21(DE3) cells using dUTP as substrate by spectrophotometric analysis.
Chain of dUTP pyrophosphatase (Plasmodium falciparum 3D7, UniProt Q8II92, K96A) (Q8II92 whole entry K96A): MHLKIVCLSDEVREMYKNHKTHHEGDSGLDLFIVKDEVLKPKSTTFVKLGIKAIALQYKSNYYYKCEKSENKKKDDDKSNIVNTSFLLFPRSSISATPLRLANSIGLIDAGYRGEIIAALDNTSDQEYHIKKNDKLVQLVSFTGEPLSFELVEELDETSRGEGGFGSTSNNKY
For another test, the system named is Plasmodium falciparum. As to the kind of experiment: Antimalarial activity against blood stage Plasmodium falciparum infected in human red blood cells […] by propidium iodide staining based microscopic analysis. It is filed as functional, organism-based.
Test [9] concerns the target T1, Deoxyuridine 5'-triphosphate nucleotidohydrolase, mitochondrial (Homo sapiens, UniProt P33316).
T1 sequence (P33316 whole entry): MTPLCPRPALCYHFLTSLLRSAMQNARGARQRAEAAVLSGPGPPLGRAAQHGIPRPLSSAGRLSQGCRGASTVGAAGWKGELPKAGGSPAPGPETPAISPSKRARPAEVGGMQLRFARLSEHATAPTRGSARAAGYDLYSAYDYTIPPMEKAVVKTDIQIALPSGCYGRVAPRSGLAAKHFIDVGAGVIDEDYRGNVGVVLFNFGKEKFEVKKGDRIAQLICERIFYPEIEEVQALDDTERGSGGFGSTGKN
Put plainly: Inhibition of human dUTPase using dUTP as substrate by spectrophotometric analysis.

As usually defined, the Ki is the dissociation constant of the complex between target and ligand, obtained from inhibition or displacement. One may read the IC50 as the concentration that gives 50% inhibition. Low readings indicate higher potency, high ones lower potency.

Chain of dUTP pyrophosphatase (Plasmodium falciparum 3D7, UniProt Q8II92, F46A) (Q8II92 whole entry F46A): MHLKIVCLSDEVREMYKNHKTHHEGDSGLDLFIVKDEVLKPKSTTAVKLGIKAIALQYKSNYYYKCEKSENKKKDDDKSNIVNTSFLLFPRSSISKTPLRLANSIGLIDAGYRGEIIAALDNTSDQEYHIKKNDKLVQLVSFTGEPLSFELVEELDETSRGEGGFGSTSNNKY
Chain of dUTP pyrophosphatase (Plasmodium falciparum 3D7, UniProt Q8II92, I117A) (Q8II92 whole entry I117A): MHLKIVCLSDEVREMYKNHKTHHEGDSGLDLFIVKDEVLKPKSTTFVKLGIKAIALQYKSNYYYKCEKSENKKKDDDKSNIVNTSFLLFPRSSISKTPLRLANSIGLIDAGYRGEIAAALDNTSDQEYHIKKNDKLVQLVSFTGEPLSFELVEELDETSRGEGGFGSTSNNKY

`O=c1ccn([C@H]2C[C@H](O)[C@@H](CNC(c3ccccc3)(c3ccccc3)c3ccccc3)O2)c(=O)[nH]1`: the Ratio Ki in [1] stood at 35; in test [2], 192; in [4] it was 418; in test [5] it was 2.3. The Ki is 20 µM on dUTP pyrophosphatase [3], 0.24 µM in test [6], 1.3 µM at dUTP pyrophosphatase [7] and 0.11 µM on dUTP pyrophosphatase [8].

Turning to `O=c1ccn([C@H]2C=C[C@@H](COC(c3ccccc3)(c3ccccc3)c3ccccc3)O2)c(=O)[nH]1`, the Ratio Ki in test [1] stood at 98; in test [2] it was 83; in test [4] it was 402; in test [5], 8. Besides, the inhibitory constant (Ki) came to 20.3 µM at dUTP pyrophosphatase [3]; 157 µM in [9]; 1.9 µM in test [6]; 1.6 µM on dUTP pyrophosphatase [7]; 0.39 µM on dUTP pyrophosphatase [8]. This compound also gave a concentration for half-maximal inhibition (IC50) in the test with Plasmodium falciparum greater than 11 µM.

Turning to `O=c1ccn(CCC(CO)CNC(c2ccccc2)(c2ccccc2)c2ccccc2)c(=O)[nH]1` (centres undefined), the Ratio Ki came to 21 in [1], 28 in test [2], 142 in test [4] and 0.19 in test [5]. The Ki on dUTP pyrophosphatase [3] is 29 µM; in [6] it was 0.2 µM; at dUTP pyrophosphatase [7] it was 0.27 µM; at dUTP pyrophosphatase [8], 0.04 µM.

For `O=c1ccn(COCCOC(c2ccccc2)(c2ccccc2)c2ccccc2)c(=O)[nH]1`, the Ratio Ki in test [1] is 2.1; in test [2] it was 24; in test [5] it was 1.3. Moreover, the Ki was determined as 13 µM on dUTP pyrophosphatase [3], 0.7 µM in test [6] and 8 µM at dUTP pyrophosphatase [7].

Consider `O=c1ccn([C@H]2C[C@H](F)[C@@H](COC(c3ccccc3)(c3ccccc3)c3ccccc3)O2)c(=O)[nH]1`, for which the Ratio Ki is 1.1 in test [1], 91 in test [2], 95 in test [4] and 2 in [5]. Moreover, the Ki was 225 µM at dUTP pyrophosphatase [3], 5 µM in [6], 406 µM at dUTP pyrophosphatase [7] and 4.8 µM at dUTP pyrophosphatase [8].

As for `O=c1ccn(CCCCCCNC(c2ccccc2)(c2ccccc2)c2ccccc2)c(=O)[nH]1`, the Ratio Ki in [1] was greater than 227; in test [2], greater than 556; in [4] it was greater than 6670; in test [5], greater than 29. Further, the inhibitory constant (Ki) at dUTP pyrophosphatase [3] was determined as 35 µM; in [6] it was 1.8 µM; at dUTP pyrophosphatase [7], 4.4 µM; at dUTP pyrophosphatase [8] it was 0.15 µM.

Turning to `O=c1ccn(C/C=C/COC(c2ccccc2)(c2ccccc2)c2ccccc2)c(=O)[nH]1`, the Ratio Ki is greater than 1250 in test [1], greater than 1670 in test [2], greater than 11100 in [4] and greater than 167 in [5]. Moreover, the Ki came out at 6 µM at dUTP pyrophosphatase [3], 0.6 µM in test [6], 0.8 µM on dUTP pyrophosphatase [7] and 0.09 µM at dUTP pyrophosphatase [8].

Regarding `O=c1ccn(CCCNC(c2ccccc2)(c2ccccc2)c2ccccc2)c(=O)[nH]1`, the Ratio Ki amounted to 2.4 in test [1], 7 in test [2], 35 in test [4] and 0.04 in test [5]. For the same compound, the Ki was 28 µM at dUTP pyrophosphatase [3], 0.2 µM in test [6], 0.6 µM on dUTP pyrophosphatase [7] and 0.04 µM at dUTP pyrophosphatase [8].

For the compound `CC(C)(C)[Si](OC[C@@H]1C=C[C@H](n2ccc(=O)[nH]c2=O)O1)(c1ccccc1)c1ccccc1`, the Ratio Ki was greater than 1250 in test [1], greater than 833 in test [2], greater than 2560 in [4] and greater than 59 in [5]. The inhibitory constant (Ki) on dUTP pyrophosphatase [3] was 17 µM; in test [9], greater than 1000 µM; in test [6], 1.2 µM; at dUTP pyrophosphatase [7] it was 0.8 µM; on dUTP pyrophosphatase [8], 0.21 µM. This compound also registered an IC50 in the test on Plasmodium falciparum of 3 µM.
